Measured values published in BindingDB's records for doi:10.1016/j.chembiol.2004.11.007 (University of Sheffield, 2005).

target: Calmodulin-1 (Homo sapiens, UniProt P0DP23); test: Fluorescence spectroscopy
Procedure: Experiments were conducted with HITACHI-4500 and Shimadzu RF-5301 fluorescence spectrophotometer.

| Compound | Kd [µM] |
| --- | --- |
| O=S(=O)(Nc1cccc(NS(=O)(=O)c2cccc3ccccc23)c1)c1cccc2ccccc12 [BN2] | 0.01 |
| COC(=O)[C@@H](CC(=O)c1cccc(C(=O)C[C@@H](Cc2c[nH]c3ccccc23)C(=O)OC)c1)Cc1c[nH]c2ccccc12 [BT1] | 10 |
| COC(=O)[C@@H](CC(=O)Cc1ccc(/C=C/c2ccc(CC(=O)C[C@@H](Cc3c[nH]c4ccccc34)C(=O)OC)cc2)cc1)Cc1c[nH]c2ccccc12 [BT2] | 9 |
| O=S(=O)(Nc1ccc(NS(=O)(=O)c2cccc3ccccc23)cc1)c1cccc2ccccc12 [BN1] | 0.07 |
